Each structure is given as a SMILES string. pIC50: −log10 of the molar value.

For this experiment, the target named is T1, full-length human AR (Homo sapiens, UniProt P10275).
T1 construct: expression vector encoding full-length human AR; expressed in transfected cells; host or cells: HEK293 (hAR/HEK293 cells)
T1 sequence (P10275 1-920): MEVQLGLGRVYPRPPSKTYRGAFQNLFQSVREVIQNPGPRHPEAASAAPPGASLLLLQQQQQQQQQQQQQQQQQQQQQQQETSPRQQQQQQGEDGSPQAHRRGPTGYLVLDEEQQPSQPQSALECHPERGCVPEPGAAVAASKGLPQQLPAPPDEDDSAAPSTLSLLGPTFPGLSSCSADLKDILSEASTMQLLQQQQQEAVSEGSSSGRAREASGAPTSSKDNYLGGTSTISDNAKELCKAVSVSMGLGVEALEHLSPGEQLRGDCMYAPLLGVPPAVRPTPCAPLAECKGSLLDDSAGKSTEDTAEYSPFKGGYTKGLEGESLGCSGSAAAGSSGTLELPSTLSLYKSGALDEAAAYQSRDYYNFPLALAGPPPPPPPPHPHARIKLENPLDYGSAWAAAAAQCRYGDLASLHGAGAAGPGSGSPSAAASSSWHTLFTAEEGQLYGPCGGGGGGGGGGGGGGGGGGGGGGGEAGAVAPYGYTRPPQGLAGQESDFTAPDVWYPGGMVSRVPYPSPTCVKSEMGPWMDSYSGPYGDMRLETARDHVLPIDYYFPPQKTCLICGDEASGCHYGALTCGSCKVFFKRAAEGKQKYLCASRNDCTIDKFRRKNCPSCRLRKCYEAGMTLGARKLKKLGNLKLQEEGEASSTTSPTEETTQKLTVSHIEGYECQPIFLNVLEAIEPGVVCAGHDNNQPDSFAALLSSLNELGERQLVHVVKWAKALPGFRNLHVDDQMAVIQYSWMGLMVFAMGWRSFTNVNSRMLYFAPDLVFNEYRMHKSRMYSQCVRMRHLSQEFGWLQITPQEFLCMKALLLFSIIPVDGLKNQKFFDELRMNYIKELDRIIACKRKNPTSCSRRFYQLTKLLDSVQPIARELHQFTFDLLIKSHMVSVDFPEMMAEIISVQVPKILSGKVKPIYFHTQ
Kind of experiment: AR antagonism, reporter gene assay in hAR/HEK293 cells. In kind it is cell-based. The note with it: HEK293 cells stably transfected with full-length human AR and androgen responsive luciferase reporter; co-treated with submaximal testosterone (usually 0.45 nM); 1% DMSO; triplicates. Here is the method: Antagonism of test compounds for AR was measured by reporter gene assay in human embryonic kidney (HEK293) cells stably transfected with an expression vector encoding full-length human AR and androgen responsive luciferase reporter gene construct (hAR/HEK293 cells). To determine antagonism for hAR, the cells were treated simultaneously with increasing concentrations of the test compound and submaximal concentration of testosterone (usually 0.45 nM). The final DMSO concentration was 1%. All test compounds were studied in triplicates. The cells were incubated for […] before measurement of luciferase activity using Luciferase Assay System (Promega Corporation).

A word on the pIC50: it is the IC50 on a negative log10 scale, so that one unit is a factor of ten. Consider `CCN(c1ccc(C#N)c(C(F)(F)F)c1)C1CCCC(n2ccnc2)C1` (single isomer, unassigned) [Ex. 72 cis-enantiomer 2, 4-((3-(1H-imidazol-1-yl)cyclohexyl)(ethyl)amino)-2-(trifluoromethyl)benzonitrile], for which the pIC50 was 7.57.

As to `CCN(c1ccc(C#N)c(C(F)(F)F)c1)C1CCCC(O)(c2cccnc2)C1` (single isomer, unassigned) [Ex. 216 diastereomer 2, 4-(Ethyl(3-hydroxy-3-(pyridin-3-yl)cyclohexyl)amino)-2-(trifluoromethyl)-benzonitrile], the pIC50 was 7.55.

As for `CN(c1ccc(C#N)c(C(F)(F)F)c1)C1C=C(c2cncs2)CCC1` (single isomer, unassigned) [Ex. 232 enantiomer 1, 4-(Methyl(3-(thiazol-5-yl)cyclohex-2-en-1-yl)amino)-2-(trifluoromethyl)-benzonitrile], the pIC50 was 7.48.

As to `CCN(c1ccc(C#N)c(C(F)(F)F)c1)C1CC=C(c2cnco2)C1` (single isomer, unassigned) [Ex. 233 enantiomer 2, 4-(Ethyl(3-(oxazol-5-yl)cyclopent-3-enyl)amino)-2-(trifluoromethyl)benzonitrile], the pIC50 was 7.54.

For the compound `CCN(c1ccc(C#N)c(Cl)c1)C1CCCC(c2cccnc2)C1` (single isomer, unassigned; diastereomer 2) [Ex. 76 cis-diastereomer, 2-Chloro-4-(ethyl(3-(pyridin-3-yl)cyclohexyl)amino)benzonitrile], the negative logarithm of the IC50 (pIC50) is 9.00.

For the compound `CCN(c1ccc(C#N)c(Cl)c1)C1CCCC(c2cncc(OC)c2)C1` (single isomer, unassigned; diastereomer 2) [Ex. 83 cis-diastereomer, 2-Chloro-4-(ethyl(3-(5-methoxypyridin-3-yl)cyclohexyl)amino)benzonitrile], the pIC50 is 7.80.

Consider `CCN(c1ccc(C#N)c(C(F)(F)F)c1)C1CCCC(c2nnco2)C1` (single isomer, unassigned; diastereomer 4) [Ex. 19 cis-diastereomer, 4-((3-(1,3,4-Oxadiazol-2-yl)cyclohexyl)(ethyl)amino)-2-(trifluoromethyl)benzonitrile], for which the pIC50 was 7.19.

For `CCN(c1ccc(C#N)c(C(F)(F)F)c1)C1CCCC(n2cccn2)C1` (single isomer, unassigned; diastereomer 4) [Ex. 48 cis-diastereomer, 4-((-3-(1H-Pyrazol-1-yl)cyclohexyl)(ethyl)amino)-2-(trifluoromethyl)benzonitrile], the pIC50 is 7.62.

Take `CCN(c1ccc(C#N)c(C(F)(F)F)c1)C1CCCC(c2nnn(C)n2)C1` (single isomer, unassigned; isomer 4) [Ex. 11 cis of 2,5-isomer, 4-(Ethyl(3-(2-methyl-2H-tetrazol-5-yl)cyclohexyl)amino)-2-(trifluoromethyl)benzonitrile]: the pIC50 was 7.59.

As for `CCN(c1ccc(C#N)c(C(F)(F)F)c1)C1CCC=C(c2ccncc2)C1` (stereo not shown) [Ex. 77, 4-(Ethyl(3-(pyridin-4-yl)cyclohex-3-en-1-yl)amino)-2-(trifluoromethyl)benzonitrile], the pIC50 was 7.40.

Take `CCN(c1cc(F)c(C#N)c(Cl)c1)C1CCC=C(c2cccnc2)C1` (stereo not shown) [Ex. 132, 2-Chloro-4-(ethyl(3-(pyridin-3-yl)cyclohex-3-en-1-yl)amino)-6-fluorobenzonitrile]: the pIC50 was 8.15.

In the case of `CCN(c1ccc(C#N)c(C(F)(F)F)c1)C1C=C(n2cncn2)CCC1` (stereo not shown) [Ex. 210, 4-((3-(1H-1,2,4-triazol-1-yl)cyclohex-2-en-1-yl)(ethyl)amino)-2-(trifluoromethyl)benzonitrile], the pIC50 is 7.64.

Regarding `CCN(c1ccc(C#N)c(C(F)(F)F)c1)C1CCCC(n2ccnn2)C1` (stereo not drawn) [Ex. 223, 4-((3-(1H-1,2,3-triazol-1-yl)cyclohexyl)(ethyl)amino)-2-(trifluoromethyl)-benzonitrile (cis-diastereomer)], the pIC50 was 7.10.

For the origin of these results see patent publication US9890139B2, “CYP17 inhibitors/antiandrogens” (Orion Corporation, priority 2013, dated 2018).
